Target: Human neutrophil elastase (Homo sapiens (Human), UniProt P08246)
Assay: Human Neutrophil Elastase Assay
Format: biochemical
Details: substrate MeOSuc-Ala-Ala-Pro-Val-AMC 250 μM, fluorescence, pH 7.5
Description: Human Neutrophil Elastase Assay
All other materials were of the highest grade commercially available.
The following buffers were used: Compound buffer: 100 mM Tris, 500 mM NaCl, adjusted to pH 7.5; Assay buffer: 100 mM Tris, 500 mM NaCl, adjusted to pH 7.5, containing 0.01% BSA.
Assay conditions: Test compounds were prediluted in DMSO and subsequently in compound buffer (5% DMSO final). […] After inactivation of the enzyme, fluorescence intensities were measured at 380 nm excitation and 460 nm emission wavelengths.
Each plate contains wells with a high value control (DMSO+enzyme+substrate) and wells with a low value control (DMSO+inactivated enzyme+substrate). IC50 values were estimated using a sigmoidal concentration response curve with variable slope. Means of low values were taken as 0%, means of high values as 100%. IC50 values of selected compound in the Neutrophil Elastase assay: […]

Human neutrophil elastase, sequence (P08246 30-247): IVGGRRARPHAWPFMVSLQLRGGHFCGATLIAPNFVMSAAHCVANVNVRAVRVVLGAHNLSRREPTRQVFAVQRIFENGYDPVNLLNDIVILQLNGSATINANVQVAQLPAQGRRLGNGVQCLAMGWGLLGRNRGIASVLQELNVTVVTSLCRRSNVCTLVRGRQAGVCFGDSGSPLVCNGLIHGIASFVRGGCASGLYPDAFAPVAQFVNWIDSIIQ

IC50 | SMILES
4.7 nM | Cc1c(-c2ccnc(C(F)(F)F)c2)c(=O)c(C(=O)NCc2ccc(S(C)(=O)=NC#N)cc2)cn1C(C)C (racemic) [Example 3, 1-Isopropyl-2-methyl-4-oxo-2′-trifluoromethyl-1,4-dihydro-[3,4′]-bipyridinyl-5-carboxylic acid 4-(N-cyano-S-methylsulfonimidoyl)-benzylamide]
3 nM | CCn1cc(C(=O)NCc2ccc(S(C)(=O)=NC#N)cc2)c(=O)c(-c2cccc(C(F)(F)F)c2)c1C (racemic) [Example 4, 1-Ethyl-6-methyl-4-oxo-5-(3-trifluoromethyl-phenyl)-1,4-dihydro-pyridine-3-carboxylic acid 4-(N-cyano-S-methylsulfonimidoyl)-benzylamide]
3.1 nM | Cc1c(-c2cccc(C(F)F)c2)c(=O)c(C(=O)NCc2ccc(S(C)(=O)=NC#N)cc2)cn1C(C)C (single isomer, unassigned) [Example 1A, 5-(3-Difluoromethyl-phenyl)-1-isopropyl-6-methyl-4-oxo-1,4-dihydro-pyridine-3-carboxylic acid 4-(N-cyano-S-methylsulfonimidoyl)-benzylamide]
12 nM | Cc1c(-c2ccnc(C(F)(F)F)c2)c(=O)c(C(=O)NCc2ccc(S(C)(=O)=NC#N)cc2)cn1C(C)C (single isomer, unassigned) [Example 3A, 1-Isopropyl-2-methyl-4-oxo-2′-trifluoromethyl-1,4-dihydro-[3,4′]-bipyridinyl-5-carboxylic acid 4-(N-cyano-S-methylsulfonimidoyl)-benzylamide]
5.1 nM | Cc1c(-c2ccnc(C(F)(F)F)c2)c(=O)c(C(=O)NCc2ccc(S(C)(=O)=NC#N)cc2)cn1C(C)C (single isomer, unassigned) [Example 3B, 1-Isopropyl-2-methyl-4-oxo-2′-trifluoromethyl-1,4-dihydro-[3,4′]-bipyridinyl-5-carboxylic acid 4-(N-cyano-S-methylsulfonimidoyl)-benzylamide]
4.1 nM | CCn1cc(C(=O)NCc2ccc(S(C)(=O)=NC#N)cc2)c(=O)c(-c2cccc(C(F)(F)F)c2)c1C (single isomer, unassigned) [Example 4A, 1-Ethyl-6-methyl-4-oxo-5-(3-trifluoromethyl-phenyl)-1,4-dihydro-pyridine-3-carboxylic acid 4-(N-cyano-S-methylsulfonimidoyl)-benzylamide]
1.6 nM | CCn1cc(C(=O)NCc2ccc(S(C)(=O)=NC#N)cc2)c(=O)c(-c2cccc(C(F)(F)F)c2)c1C (single isomer, unassigned) [Example 4B, 1-Ethyl-6-methyl-4-oxo-5-(3-trifluoromethyl-phenyl)-1,4-dihydro-pyridine-3-carboxylic acid 4-(N-cyano-S-methylsulfonimidoyl)-benzylamide]
2.7 nM | CCn1cc(C(=O)NCc2ccc(S(=O)(CC)=NC#N)cc2)c(=O)c(-c2cccc(C(F)(F)F)c2)c1C (single isomer, unassigned) [Example 10A]
1.2 nM | CCn1cc(C(=O)NCc2ccc(S(=O)(CC)=NC#N)cc2)c(=O)c(-c2cccc(C(F)(F)F)c2)c1C (single isomer, unassigned) [Example 10B]
5.6 nM | Cc1c(-c2cccc(C(F)(F)F)c2)c(=O)c(C(=O)NCc2ccc(S(C)(=O)=NC#N)cc2)cn1C1CC1 (single isomer, unassigned) [Example 20]
5.2 nM | CCS(=O)(=NC#N)c1ccc(CNC(=O)c2cn(C3CC3)c(C)c(-c3cccc(C(F)(F)F)c3)c2=O)cc1 (single isomer, unassigned) [Example 21A]
2.1 nM | CCS(=O)(=NC#N)c1ccc(CNC(=O)c2cn(C3CC3)c(C)c(-c3cccc(C(F)(F)F)c3)c2=O)cc1 (single isomer, unassigned) [Example 21B]
4.5 nM | Cc1c(-c2cccc(C(F)(F)F)c2)c(=O)c(C(=O)NCc2ccc(S(=O)(=NC#N)C(C)C)cc2)cn1C1CC1 (single isomer, unassigned) [Example 22A]
1.2 nM | Cc1c(-c2cccc(C(F)(F)F)c2)c(=O)c(C(=O)NCc2ccc(S(=O)(=NC#N)C(C)C)cc2)cn1C1CC1 (single isomer, unassigned) [Example 22B]
5.5 nM | Cc1c(-c2cccc(C(F)(F)F)c2)c(=O)c(C(=O)NCc2ccc(S(C)(=O)=NC#N)cc2)cn1-c1ccccc1 (single isomer, unassigned) [Example 24]
4.3 nM | Cc1c(-c2cccc(C(F)(F)F)c2)c(=O)c(C(=O)NCc2ccc(S(C)(=O)=NC#N)cc2)cn1-c1ccccn1 (single isomer, unassigned) [Example 25]
3.3 nM | Cc1c(-c2cccc(C(F)(F)F)c2)c(=O)c(C(=O)NCc2ccc(S(C)(=O)=NC#N)cc2)cn1-c1cccnc1 (single isomer, unassigned) [Example 26]
3.3 nM | Cc1c(-c2cccc(C(F)(F)F)c2)c(=O)c(C(=O)NCc2ccc(S(C)(=O)=NC#N)cc2)cn1-c1cncnc1 (single isomer, unassigned) [Example 28]
2.2 nM | CCn1cc(C(=O)NCc2ccc(S(=O)(CC)=NC#N)cc2)c(=O)c(-c2cccc(C(F)F)c2)c1C (single isomer, unassigned) [Example 29A]
< 1 nM | CCn1cc(C(=O)NCc2ccc(S(=O)(CC)=NC#N)cc2)c(=O)c(-c2cccc(C(F)F)c2)c1C (single isomer, unassigned) [Example 29B]
1.8 nM | CCn1cc(C(=O)NCc2ccc(S(=O)(=NC#N)C(C)C)cc2)c(=O)c(-c2cccc(C(F)F)c2)c1C (single isomer, unassigned) [Example 30A]
< 1 nM | CCn1cc(C(=O)NCc2ccc(S(=O)(=NC#N)C(C)C)cc2)c(=O)c(-c2cccc(C(F)F)c2)c1C (single isomer, unassigned) [Example 30B]
3.7 nM | Cc1c(-c2cccc(C(F)F)c2)c(=O)c(C(=O)NCc2ccc(S(C)(=O)=NC#N)cc2)cn1-c1ccccc1 (single isomer, unassigned) [Example 38]
3.7 nM | Cc1c(-c2cccc(C(F)F)c2)c(=O)c(C(=O)NCc2ccc(S(C)(=O)=NC#N)cc2)cn1-c1cccnc1 (single isomer, unassigned) [Example 39]
4 nM | Cc1c(-c2cccc(C(F)F)c2)c(=O)c(C(=O)NCc2ccc(S(C)(=O)=NC#N)cc2)cn1-c1ccncc1 (single isomer, unassigned) [Example 40]
1.8 nM | Cc1c(-c2ccc(F)c(C(F)(F)F)c2)c(=O)c(C(=O)NCc2ccc(S(C)(=O)=NC#N)cc2)cn1C(C)C (single isomer, unassigned) [Example 41]
4.7 nM | Cc1c(-c2ccc(F)c(C(F)F)c2)c(=O)c(C(=O)NCc2ccc(S(C)(=O)=NC#N)cc2)cn1C(C)C (single isomer, unassigned) [Example 42]
13.4 nM | Cc1c(-c2ccnc(C(F)(F)F)c2)c(=O)c(C(=O)NCc2ccc(S(C)(=O)=NC#N)cc2)cn1-c1ccccc1 (single isomer, unassigned) [Example 43]
14.9 nM | Cc1c(-c2ccnc(C(F)(F)F)c2)c(=O)c(C(=O)NCc2ccc(S(C)(=O)=NC#N)cc2)cn1-c1ccccn1 (single isomer, unassigned) [Example 44]
14.4 nM | Cc1c(-c2ccnc(C(F)(F)F)c2)c(=O)c(C(=O)NCc2ccc(S(C)(=O)=NC#N)cc2)cn1-c1cccnc1 (single isomer, unassigned) [Example 45]

From US9346794B1, “Substituted 4-pyridones and their use as inhibitors of neutrophil elastase activity” (Boehringer Ingelheim International GmbH, priority 2012, dated 2016)
